Reference: PMC10537403 (Viruses, 2023)
No end group written: not given here.

Assays:
Assay type in all cases: cell-based
[1] = system: bovine herpesvirus type 1 (BoHV-1, Cooper strain); assay: Antiviral activity against BoHV-1, plaque assay, time of addition assays; settings: MDBK cells
[2] = system: caprine herpesvirus type 1 (CpHV-1, reference Swiss strain E/CH); assay: Antiviral activity against CpHV-1, plaque assay, time of addition assays; settings: MDBK cells
[3] = system: canine distemper virus (CDV, strain Onderstepoort); assay: Antiviral activity against CDV, plaque assay, time of addition assays; settings: VERO/hSLAM cells, co-treatment, virus pre-treatment, cell pre-treatment, post-treatment
[4] = system: VERO/hSLAM, BHK-21, and MDBK cell lines; assay: Cytotoxicity, MTT assay; settings: 2 and 24 h, peptides […] to 100 μM
[5] = system: Schmallenberg virus (SBV); settings: BHK-21 cells, SBV 200 TCID50 incubated with peptide 1 h, CPE at 72 h, MTT staining

| Substance | Antiviral action against BoHV-1 (in words) [1] | Antiviral action against CpHV-1 (in words) [2] | Inhibitory effect against CDV in all the time-addition assays (in words) [3] | Cytotoxicity (in words) [4] | Activity against SBV infection (in words) [5] |
| --- | --- | --- | --- | --- | --- |
| H-GILDAIKAIAKAAG-OH [Hylaseptin-P1, amphibian peptide derived from Leptopelis aubryi] | no antiviral action | no antiviral action | did not show an inhibitory effect | not cytotoxic even at higher concentrations tested | any activity |
| RIGVLLARLPKLFSLFKLMGKKV-NH2 [RV-23] |  |  |  |  | able to reduce SBV infection with a higher efficacy |
| H-GLADFLNKAVGKVVDFVKS-NH2 [Deserticolin-1, amphibian peptide secreted by Crinia deserticola] | no antiviral action | no antiviral action | did not show an inhibitory effect | not cytotoxic even at higher concentrations tested | any activity |
